The values below come from article PMC9905048 (Bioorganic & Medicinal Chemistry Letters, 2023).

Where two headings read alike, the source gives them in different places. Some results are limits rather than exact numbers.

The subject of data set [1] is SARS-CoV-2 (hCoV-19/Korea/KCDC-06/2020). Briefly: Cell-based antiviral assay against SARS-CoV-2 in Vero cells. The following applies: ratio of EC50, in vitro.
The test system of data set [2] is DENV-2 replicon BHK-21 (DENV2-BHK) cells. The data set is classed as cell-based.
The next data set relates to Flu B/Lee/40 (Lee). As to the kind of experiment: Cell-based antiviral assay against Flu B in MDCK cells. Further details: species or system influenza B virus.
Data set [3] deals with cells of the SARS-CoV-2, Flu A/B and DENV-2 assays.
Setting [4] is: in vitro, summary for SARS-CoV-2, Flu A/B and DENV-2 assays.

Consider `CC(C)C(=O)ONc1ccn([C@@H]2O[C@H](CO)[C@@H](O)[C@H]2O)c(=O)n1` [8a, β-D-N^4-O-isobutyrylcytidine], for which the “potency against SARS-CoV-2 compared to NHC (1)” value in data set [1] was above 5 fold. In addition, the “potency (EC50) against DENV-2 compared with T-705 and amantadine (AMT)” value in data set [2] is on record as “about 2 fold”. Also, the “potency (EC50) against Flu B compared with T-705 and amantadine (AMT)” value in the data set with Flu B/Lee/40 (Lee) is on record as “about 2 fold”. As for `Cl.NNc1ccn([C@@H]2O[C@H](CO)[C@@H](O)[C@H]2O)c(=O)n1` [compound 9, N ^4-aminocytidine], in data set [3] (African green monkey (Vero), hamster (BHK-21), dog (MDCK)), the cell cytotoxicity is reported as above 100 µM. As to C4-2‑hydroxylethyl cytidine [8c], the cell cytotoxicity in data set [3] (setting [4]) was above 100 µM. `CC(C)(C)OC(=O)NNc1ccn([C@@H]2O[C@H](CO)[C@@H](O)[C@H]2O)c(=O)n1` [8b, C4-Boc-hyrazinyl cytidine]: the cell cytotoxicity in data set [3] (setting [4]) is recorded as above 100 µM.
